Results from publication PMC10581904, “Structural basis for abscisic acid efflux mediated by ABCG25 in Arabidopsis thaliana” (Nature Plants, 2023).

Experiments:
ABCG25 [1] = molecular target: T1, ABCG25 (Arabidopsis thaliana, UniProt Q84TH5); assay: stimulation of ATPase activity (colorimetric Pi release), allosteric sigmoidal fit; assay type: biochemical; design: full-length, N-terminal Flag tag, baculovirus / Sf9 cells, homodimer, purified in DDM or digitonin (with CHS extraction)
T1 sequence (Q84TH5 1-662): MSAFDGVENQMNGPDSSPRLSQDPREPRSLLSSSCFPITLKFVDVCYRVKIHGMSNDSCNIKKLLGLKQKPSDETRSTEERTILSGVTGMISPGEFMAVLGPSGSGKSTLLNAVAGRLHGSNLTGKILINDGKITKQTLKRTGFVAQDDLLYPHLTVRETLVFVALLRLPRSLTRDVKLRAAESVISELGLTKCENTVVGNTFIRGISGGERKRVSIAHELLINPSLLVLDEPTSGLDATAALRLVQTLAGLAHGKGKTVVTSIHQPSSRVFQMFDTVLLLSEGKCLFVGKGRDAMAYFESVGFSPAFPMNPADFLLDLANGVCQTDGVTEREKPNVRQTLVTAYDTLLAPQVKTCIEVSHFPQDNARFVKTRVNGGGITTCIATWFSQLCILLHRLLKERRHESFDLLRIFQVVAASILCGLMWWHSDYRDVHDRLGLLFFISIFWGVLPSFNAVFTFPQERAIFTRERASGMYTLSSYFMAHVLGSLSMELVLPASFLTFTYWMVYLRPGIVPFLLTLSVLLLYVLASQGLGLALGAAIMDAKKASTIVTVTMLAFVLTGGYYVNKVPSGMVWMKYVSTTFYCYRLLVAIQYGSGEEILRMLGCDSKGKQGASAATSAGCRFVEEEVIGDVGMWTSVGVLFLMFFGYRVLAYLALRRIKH

ABCG25 [2] = molecular target: T1, ABCG25; assay: [3H]-ABA loading and efflux assays in Sf9 cells; assay type: cell-based; design: full-length, N-terminal Flag tag, baculovirus / Sf9 cells; details: 6.6 nM, pH 5.5; labelled compound
ABCG25 [3] = molecular target: T1, ABCG25; assay: ATPase activity in liposomes reconstituted with or without cholesterol; assay type: biochemical; design: full-length, N-terminal Flag tag, baculovirus / Sf9 cells, homodimer, purified in DDM or digitonin (with CHS extraction); details: lipid:cholesterol 9:1 (w/w), proteoliposomes; direct action not proven (sterol identity in the cavity not settled)
[4] = molecular target: the molecule itself; assay: cryo-EM structure; single particle analysis of purified ABCG25WT in 25 mM HEPES-NaOH pH 7.4, 150 mM NaCl, 0.03% digitonin; apo or with 2 mM ABA; C2 symmetry applied
[5] = substrate: Nc1ncnc2c1ncn2[C@@H]1O[C@H](COP(=O)(O)OP(=O)(O)OP(=O)(O)O)[C@@H](O)[C@H]1O; assay: ATPase activity (colorimetric Pi release), Michaelis-Menten fit; assay type: biochemical, Arabidopsis thaliana; details: 10 mM MgCl2, pH 7.4, 37 °C, detergent micelle (0.01% DDM), no ABA
[6] = molecular target: the molecule itself; assay: cryo-EM structure; single particle analysis of purified E232Q ABCG25 in digitonin, incubated with 5 mM ATP and 10 mM MgCl2 on ice for 60 min

Molecule: CC1=CC(=O)CC(C)(C)[C@@]1(O)/C=C/C(C)=C/C(=O)O [ABA, (S)-(+)-Abscisic acid]
- EC50 (ABCG25 [1]): 680 nM

Molecule: CC1=CC(=O)CC(C)(C)[C@@]1(O)/C=C/C(C)=C\C(=O)O [[3H]-ABA]
- residual [3H]-ABA (ABCG25 [2]): residual [^3H]-ABA substantially decreased in cells expressing ABCG25

Molecule: CC(C)CCC[C@@H](C)[C@H]1CC[C@H]2[C@@H]3CC=C4C[C@@H](O)CC[C@]4(C)[C@H]3CC[C@]12C [cholesterol]
- ATPase activity (ABCG25 [3]): cholesterol was added during liposomes reconstitution, the ATPase activity of ABCG25 was significantly reduced

B1: wild-type ABCG25 from Arabidopsis thaliana (natural protein, UniProt Q84TH5 1-662, looked up)
chain: MSAFDGVENQMNGPDSSPRLSQDPREPRSLLSSSCFPITLKFVDVCYRVKIHGMSNDSCNIKKLLGLKQKPSDETRSTEERTILSGVTGMISPGEFMAVLGPSGSGKSTLLNAVAGRLHGSNLTGKILINDGKITKQTLKRTGFVAQDDLLYPHLTVRETLVFVALLRLPRSLTRDVKLRAAESVISELGLTKCENTVVGNTFIRGISGGERKRVSIAHELLINPSLLVLDEPTSGLDATAALRLVQTLAGLAHGKGKTVVTSIHQPSSRVFQMFDTVLLLSEGKCLFVGKGRDAMAYFESVGFSPAFPMNPADFLLDLANGVCQTDGVTEREKPNVRQTLVTAYDTLLAPQVKTCIEVSHFPQDNARFVKTRVNGGGITTCIATWFSQLCILLHRLLKERRHESFDLLRIFQVVAASILCGLMWWHSDYRDVHDRLGLLFFISIFWGVLPSFNAVFTFPQERAIFTRERASGMYTLSSYFMAHVLGSLSMELVLPASFLTFTYWMVYLRPGIVPFLLTLSVLLLYVLASQGLGLALGAAIMDAKKASTIVTVTMLAFVLTGGYYVNKVPSGMVWMKYVSTTFYCYRLLVAIQYGSGEEILRMLGCDSKGKQGASAATSAGCRFVEEEVIGDVGMWTSVGVLFLMFFGYRVLAYLALRRIKH
notes: ABCG25, Arabidopsis thaliana, UniProt Q84TH5, full length; Homodimer of a half-transporter (one NBD and one TMD per chain); No cleavage of the Flag tag is described; the protein was eluted with Flag peptide; also called ABCG25WT; WT
- stoichiometry N [4]: 2
- Km [5]: 790 µM

B2: ABCG25 E232Q catalytic mutant (natural protein, Arabidopsis thaliana, UniProt Q84TH5 1-662, looked up)
chain: MSAFDGVENQMNGPDSSPRLSQDPREPRSLLSSSCFPITLKFVDVCYRVKIHGMSNDSCNIKKLLGLKQKPSDETRSTEERTILSGVTGMISPGEFMAVLGPSGSGKSTLLNAVAGRLHGSNLTGKILINDGKITKQTLKRTGFVAQDDLLYPHLTVRETLVFVALLRLPRSLTRDVKLRAAESVISELGLTKCENTVVGNTFIRGISGGERKRVSIAHELLINPSLLVLDQPTSGLDATAALRLVQTLAGLAHGKGKTVVTSIHQPSSRVFQMFDTVLLLSEGKCLFVGKGRDAMAYFESVGFSPAFPMNPADFLLDLANGVCQTDGVTEREKPNVRQTLVTAYDTLLAPQVKTCIEVSHFPQDNARFVKTRVNGGGITTCIATWFSQLCILLHRLLKERRHESFDLLRIFQVVAASILCGLMWWHSDYRDVHDRLGLLFFISIFWGVLPSFNAVFTFPQERAIFTRERASGMYTLSSYFMAHVLGSLSMELVLPASFLTFTYWMVYLRPGIVPFLLTLSVLLLYVLASQGLGLALGAAIMDAKKASTIVTVTMLAFVLTGGYYVNKVPSGMVWMKYVSTTFYCYRLLVAIQYGSGEEILRMLGCDSKGKQGASAATSAGCRFVEEEVIGDVGMWTSVGVLFLMFFGYRVLAYLALRRIKH
notes: ABCG25, Arabidopsis thaliana, UniProt Q84TH5, full length, with E232Q in the Walker B motif of the NBD; Made and purified in the same way as the wild type; incubated with ATP and Mg2+ before grid preparation; also called ABCG25EQ; E232Q ABCG25
- stoichiometry N [6]: 2
